The values below come from US10435399B2, “HDAC6 inhibitory heterocyclic compound” (TAKEDA PHARMACEUTICAL COMPANY LIMITED, priority 2017, dated 2019).

This assay has as its target T1, HDAC6 enzyme (Homo sapiens, UniProt Q9UBN7).
T1 construct: transducing full length HDAC6 gene into Sf-9 insect cells; GST; purchased SignalChem; host or cells: Sf-9 insect cells
T1 sequence (Q9UBN7 1-1215): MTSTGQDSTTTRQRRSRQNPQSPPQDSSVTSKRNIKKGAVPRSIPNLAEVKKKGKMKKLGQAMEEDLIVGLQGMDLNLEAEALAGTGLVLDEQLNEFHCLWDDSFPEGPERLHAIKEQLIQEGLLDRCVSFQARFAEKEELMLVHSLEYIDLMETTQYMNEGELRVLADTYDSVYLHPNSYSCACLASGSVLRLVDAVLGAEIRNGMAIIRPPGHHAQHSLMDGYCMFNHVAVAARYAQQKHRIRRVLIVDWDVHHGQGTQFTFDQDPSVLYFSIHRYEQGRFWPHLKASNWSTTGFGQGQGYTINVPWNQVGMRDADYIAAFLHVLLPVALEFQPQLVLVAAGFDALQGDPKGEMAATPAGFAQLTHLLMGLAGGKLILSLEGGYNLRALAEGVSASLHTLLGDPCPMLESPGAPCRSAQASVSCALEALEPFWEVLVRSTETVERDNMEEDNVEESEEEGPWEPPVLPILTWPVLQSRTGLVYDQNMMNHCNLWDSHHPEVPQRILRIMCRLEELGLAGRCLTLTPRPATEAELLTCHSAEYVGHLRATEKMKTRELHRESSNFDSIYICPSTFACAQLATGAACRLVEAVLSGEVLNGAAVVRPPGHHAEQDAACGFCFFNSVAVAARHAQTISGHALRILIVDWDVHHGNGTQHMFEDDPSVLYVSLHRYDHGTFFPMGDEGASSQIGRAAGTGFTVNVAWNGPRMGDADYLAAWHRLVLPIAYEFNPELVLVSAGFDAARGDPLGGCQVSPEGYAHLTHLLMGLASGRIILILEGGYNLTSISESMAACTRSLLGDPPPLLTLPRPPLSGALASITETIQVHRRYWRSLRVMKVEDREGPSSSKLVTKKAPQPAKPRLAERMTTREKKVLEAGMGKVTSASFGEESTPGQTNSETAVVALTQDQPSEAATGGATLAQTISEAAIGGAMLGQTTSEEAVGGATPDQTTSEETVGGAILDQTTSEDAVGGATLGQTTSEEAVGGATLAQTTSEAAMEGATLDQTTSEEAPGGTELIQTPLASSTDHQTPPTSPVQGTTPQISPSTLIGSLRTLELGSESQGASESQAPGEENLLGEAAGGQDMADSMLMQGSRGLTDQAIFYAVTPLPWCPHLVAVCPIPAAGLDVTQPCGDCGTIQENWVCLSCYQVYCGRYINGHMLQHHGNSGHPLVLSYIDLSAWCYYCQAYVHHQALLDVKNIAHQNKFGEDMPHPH
The assay is described as follows: HDAC6 enzyme inhibitory activity (HDAC-Glo I/II Assay kit). The format is biochemical. The note with it: 10 μM; wells without enzyme = 100% inhibition; read-out: HDAC6 inhibitory rate (%) (10 μM). The essentials: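 Luminescent HDAC-Glo I/II readout after 20 min room-temperature reaction with substrate-developer, following 60 min compound–enzyme preincubation. Enzyme: full-length HDAC6 from Sf-9 cells, GST-purified; buffer 24 mM Tris-HCl pH 7.5, 0.01% Tween-20, glutathione, salts. Wells lacking enzyme define 100% inhibition.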
With `CC(C)(C)OC(=O)N1CC(F)(F)C[C@@H]1CN1Cc2c(F)cc(-c3nnc(C(F)F)o3)cc2C1=O` [Example 352, tert-butyl (2R)-2-((6-(5-(difluoromethyl)-1,3,4-oxadiazol-2-yl)-4-fluoro-1-oxo-1,3-dihydro-2H-isoindol-2-yl)methyl)-4,4-difluoropyrrolidine-1-carboxylate], the inhibition at 10 µM amounted to 99%.

Take `O=C1c2cc(-c3nnc(C(F)F)o3)cnc2CN1Cc1cc(F)cc(F)c1` [Example 353, 6-(3,5-difluorobenzyl)-3-(5-(difluoromethyl)-1,3,4-oxadiazol-2-yl)-6,7-dihydro-5H-pyrrolo[3,4-b]pyridin-5-one]: the inhibition at 10 µM turned out to be 98%.

With `O=C1c2cc(-c3nnc(C(F)F)o3)cc(F)c2CN1C[C@H]1CC(F)(F)CN1` [Example 354, 6-(5-(difluoromethyl)-1,3,4-oxadiazol-2-yl)-2-(((2R)-4,4-difluoropyrrolidin-2-yl)-methyl)-4-fluoroisoindolin-1-one], the inhibition at 10 µM came to 92%.

Take `O=C1c2cc(-c3nnc(C(F)F)o3)cnc2CN1Cc1cccc(C(F)(F)F)c1` [Example 355]: the inhibition at 10 µM was determined as 100%.

For `O=C1c2cc(-c3nnc(C(F)F)o3)cc(F)c2CN1C[C@H]1CC(F)(F)CN1S(=O)(=O)C1CC1` [Example 356, 2-(((2R)-1-(cyclopropyl-sulfonyl)-4,4-difluoro-pyrrolidin-2-yl)methyl)-6-(5-(difluoromethyl)-1,3,4-oxadiazol-2-yl)-4-fluoro-isoindolin-1-one], the inhibition at 10 µM is 101%.

With `COc1ccccc1CN1Cc2ncc(-c3nnc(C(F)F)o3)cc2C1=O` [Example 357, 3-(5-(difluoromethyl)-1,3,4-oxadiazol-2-yl)-6-(2-methoxybenzyl)-6,7-dihydro-5H-pyrrolo[3,4-b]-pyridin-5-one], the inhibition at 10 µM came to 98%.

For the compound `O=C1c2cc(-c3nnc(C(F)F)o3)cnc2CN1Cc1ccccc1OC(F)F` [Example 358, 6-(2-(difluoromethoxy)-benzyl)-3-(5-(difluoro-methyl)-1,3,4-oxadiazol-2-yl)-6,7-dihydro-5H-pyrrolo-[3,4-b]pyridin-5-one], the inhibition at 10 µM amounted to 102%.

On to `O=C1c2cc(-c3nnc(C(F)F)o3)cnc2CN1Cc1cccnc1` [Example 359, 3-(5-(difluoromethyl)-1,3,4-oxadiazol-2-yl)-6-(pyridin-3-ylmethyl)-6,7-dihydro-5H-pyrrolo[3,4-b]pyridin-5-one], for which the inhibition at 10 µM worked out at 97%.

Consider `O=C1c2cc(-c3nnc(C(F)F)o3)cc(F)c2CN1[C@@H]1CCOC[C@H]1NCC(F)(F)F` [Example 360, 6-(5-(difluoromethyl)-1,3,4-oxadiazol-2-yl)-4-fluoro-2-((3S,4R)-3-((2,2,2-trifluoro-ethyl)amino)tetrahydro-2H-pyran-4-yl)isoindolin-1-one], for which the inhibition at 10 µM was 103%.

As to `O=C1c2cc(-c3nnc(C(F)F)o3)cc(F)c2CN1[C@@H]1COCC[C@H]1NCC(F)(F)F` [Example 361, 6-(5-(difluoromethyl)-1,3,4-oxadiazol-2-yl)-4-fluoro-2-((3S,4R)-4-((2,2,2-trifluoro-ethyl)amino)tetrahydro-2H-pyran-3-yl)isoindolin-1-one], the inhibition at 10 µM is 101%.

As to `O=C1c2cc(-c3nnc(C(F)F)o3)cnc2CN1Cc1ccccn1` [Example 362, 3-(5-(difluoromethyl)-1,3,4-oxadiazol-2-yl)-6-(pyridin-2-yl-methyl)-6,7-dihydro-5H-pyrrolo[3,4-b]pyridin-5-one], the inhibition at 10 µM was 99%.

As for `CC(C)(C)OC(=O)N[C@H]1COCC[C@H]1N1Cc2c(F)cc(-c3nnc(C(F)F)o3)cc2C1=O` [Example 363, tert-butyl ((3R,4R)-4-(6-(5-(difluoromethyl)-1,3,4-oxadiazol-2-yl)-4-fluoro-1-oxo-1,3-dihydro-2H-isoindol-2-yl)tetrahydro-2H-pyran-3-yl)carbamate], the inhibition at 10 µM was 99%.

On to `N[C@H]1COCC[C@H]1N1Cc2c(F)cc(-c3nnc(C(F)F)o3)cc2C1=O` [Example 364, 2-((3R,4R)-3-amino-tetrahydro-2H-pyran-4-yl)-6-(5-(difluoromethyl)-1,3,4-oxadiazol-2-yl)-4-fluoroisoindolin-1-one], for which the inhibition at 10 µM was found to be 87%.

For the compound `O=C1c2cc(-c3nnc(C(F)F)o3)cc(F)c2CN1[C@@H]1CCOC[C@@H]1NC(=O)C(F)(F)C(F)(F)F` [Example 365, N-((3R,4R)-4-(6-(5-(difluoromethyl)-1,3,4-oxadiazol-2-yl)-4-fluoro-1-oxo-1,3-dihydro-2H-isoindol-2-yl)tetrahydro-2H-pyran-3-yl)-2,2,3,3,3-pentafluoropropanamide], the inhibition at 10 µM was found to be 101%.

As to `CC(F)(F)C(=O)N[C@H]1COCC[C@H]1N1Cc2c(F)cc(-c3nnc(C(F)F)o3)cc2C1=O` [Example 366, N-((3R,4R)-4-(6-(5-(difluoromethyl)-1,3,4-oxadiazol-2-yl)-4-fluoro-1-oxo-1,3-dihydro-2H-isoindol-2-yl)tetrahydro-2H-pyran-3-yl)-2,2-difluoropropanamide], the inhibition at 10 µM was determined as 97%.

As to `O=C1c2cc(-c3nnc(C(F)F)o3)cnc2CN1[C@@H]1CCCC[C@H]1NCC(F)(F)F` [Example 367, 3-(5-(difluoromethyl)-1,3,4-oxadiazol-2-yl)-6-((1R,2R)-2-((2,2,2-trifluoroethyl)amino)-cyclohexyl)-6,7-dihydro-5H-pyrrolo[3,4-b]pyridin-5-one], the inhibition at 10 µM amounted to 101%.

Consider `Cn1cc(-c2cccc(C#N)c2)c(N2Cc3ccc(-c4nnc(C(F)F)o4)cc3C2=O)n1` [Example 368, 3-(3-(6-(5-(difluoromethyl)-1,3,4-oxadiazol-2-yl)-1-oxo-1,3-dihydro-2H-isoindol-2-yl)-1-methyl-1H-pyrazol-4-yl)benzonitrile], for which the inhibition at 10 µM was 99%.

On to `Cn1cc(-c2cccc(Cl)c2)c(N2Cc3ccc(-c4nnc(C(F)F)o4)cc3C2=O)n1` [Example 369, 2-(4-(3-chlorophenyl)-1-methyl-1H-pyrazol-3-yl)-6-(5-(difluoro-methyl)-1,3,4-oxadiazol-2-yl)isoindolin-1-one], for which the inhibition at 10 µM came out at 99%.

On to `O=C1c2cc(-c3nnc(C(F)F)o3)cnc2CN1Cc1cccc(C(F)F)c1` [Example 370, 6-(3-(difluoromethyl)benzyl)-3-(5-(difluoro-methyl)-1,3,4-oxadiazol-2-yl)-6,7-dihydro-5H-pyrrolo[3,4-b]pyridin-5-one], for which the inhibition at 10 µM is 101%.

With `O=C1c2cc(-c3nnc(C(F)F)o3)cc(F)c2CN1C1(CNS(=O)(=O)CC(F)(F)F)CCCCC1` [Example 371, N-((1-(6-(5-(difluoro-methyl)-1,3,4-oxadiazol-2-yl)-4-fluoro-1-oxo-1,3-dihydro-2H-isoindol-2-yl)cyclohexyl)methyl)-2,2,2-trifluoroethane-sulfonamide], the inhibition at 10 µM was determined as 99%.

For the compound `O=C1c2cc(-c3nnc(C(F)F)o3)cc(F)c2CN1c1ccccc1Br` [Example 372, 2-(2-bromophenyl)-6-(5-(difluoromethyl)-1,3,4-oxadiazol-2-yl)-4-fluoroisoindolin-1-one], the inhibition at 10 µM amounted to 92%.

For the compound `O=C1c2cc(-c3nnc(C(F)F)o3)ccc2CN1c1cccc(F)c1Br` [Example 373, 2-(2-bromo-3-fluorophenyl)-6-(5-(difluoromethyl)-1,3,4-oxadiazol-2-yl)isoindolin-1-one], the inhibition at 10 µM worked out at 97%.

In the case of `O=C1c2cc(-c3nnc(C(F)F)o3)cc(F)c2CN1[C@@H]1CCOC[C@@H]1NCC(F)(F)F` [Example 374, 6-(5-(difluoromethyl)-1,3,4-oxadiazol-2-yl)-4-fluoro-2-((3R,4R)-3-((2,2,2-trifluoroethyl)amino)tetrahydro-2H-pyran-4-yl)isoindolin-1-one], the inhibition at 10 µM is 99%.

With `O=C1c2cc(-c3nnc(C(F)F)o3)cc(F)c2CN1[C@@H]1CCOC[C@@H]1NCC(F)(F)C(F)(F)F` [Example 375, 6-(5-(difluoromethyl)-1,3,4-oxadiazol-2-yl)-4-fluoro-2-((3R,4R)-3-((2,2,3,3,3-pentafluoropropyl)amino)tetrahydro-2H-pyran-4-yl)isoindolin-1-one], the inhibition at 10 µM was 101%.
